# No end group written: not given here. *: point of attachment. Myristoyl = CCCCCCCCCCCCCC(=O)*
# Columns and labels:
# human ES cells = details: cited from earlier work
# [1] = tested on: human iPS cell line Tic (JCRB1331); test: Culture with protein kinase C peptide inhibitor, alkaline phosphatase staining; assay type: cell-based; details: fourth day, FIG. 9
# Experimental: Media comprising the activin-containing supplement+hESF-grow medium or the activin-free supplement+hESF-grow medium with fibronectin coating described in Example 3 and 0, 1, 2.5, 5, or 10 μM each of myristoylated protein kinase C peptide inhibitor (Myr. […]) (from Promega Corporation) added thereto were prepared, and used as first media containing a protein kinase C inhibitor and second media containing a protein kinase C inhibitor.
# Human iPS cell line Tic (JCRB1331) was dispersed in the first medium containing a protein kinase C inhibitor and culturing was started. 60 hours after starting the culturing of the cell line Tic, a medium change into the second medium containing a protein kinase C inhibitor was conducted. Twice of medium changes were further conducted every 24 hours. On the fourth day after starting the culturing, the cells were fixed with 4.5 mM citric acid, 2.25 mM sodium citrate, 3 mM sodium chloride, 65% methanol and 4% paraformaldehyde for five minutes. Alkaline phosphatase staining was conducted with FastRed substrate kit (from Sigma Chemical Co.) according to the guidance of the manufacturer.
# [2] = tested on: ERK (extracellular signal-regulated kinases); details: addition of activin; cited from earlier work
# [3] = tested on: human ES cell line KhES-1; test: Cell adhesion to ECM-coated microplates (crystal violet, absorbance 595 nm); assay type: cell-based; details: coating 0.01-10 μg/cm^2, hESF9 medium, two days culture; FIG. 1(a)
# Experimental: (§1) The inventors studied on the substitution of ECMs such as collagen I, gelatin, laminin, fibronectin, and the like, which are recently used as a cell support in place of feeder cells, from animal-derived materials to animal product-free ingredients. Studies were conducted with human ES cell line KhES-1 (Laboratory of embryonic stem Cell research Center, Institute for Frontier Medical Sciences, Kyoto University), and human iPS cell line Tic (JCRB1331) (JSCB cell bank, National Institute of Biomedical Innovation); and the embryonal cancer cell line PA-1 (JCRB9061) (JSCB cell bank, National institute of Biomedical Innovation) was used as a comparative example.
# (§2) Using 96 well microplates (from Corning Incorporated), each of collagen I (from Nitta Gelatin Inc.), gelatin (from Sigma Chemical Co.), laminin (from Sigma Chemical Co.), and fibronectin (from Sigma Chemical Co.) was treated at 37° C. for 3 hours, with avoiding being dried, to coat the microplates with each at 0.01, 0.05, 0.1, 0.5, 1, 5 and 10 μg/cm^2. The aforementioned hESF9 medium was added, and then human ES cell line KhES-1 and human iPS cell line Tic (JCRB1331), and embryonal cancer cell line PA-1 (JCRB9061) were seeded at […], after counting their cell numbers. After culturing the cells for two days (or culturing the embryonal cancer cell line PA-1 (JCRB9061) for one hour), the cells were fixed and nuclei of adhered cells were stained with 0.4% crystal violet (from Sigma Chemical Co.) dissolved in methanol for 30 minutes. The microplates were washed and then dried. The cells were lysed with 0.1 M sodium citrate dissolved in 50% methanol, and absorbance at 595 nm was measured with a microplate reader (model 550, from Bio-Rad Laboratories, Inc.).
# [4] = tested on: human iPS cell line Tic (JCRB1331); test: as above; assay type: cell-based; details: coating 0.01-10 μg/cm^2, hESF9 medium, two days culture; FIG. 1(b)
# Experimental: as §1, §2
# [5] = tested on: embryonal cancer cell line PA-1 (JCRB9061); test: Cell adhesion to ECM-coated microplates (comparative example); assay type: cell-based; details: hESF9 medium, one hour culture; FIG. 1(c)
# Experimental: as §1, §2
# Embryonal cancer cell line PA-1 (JCRB9061) was studied on the adhesion ability to the various ECNs described above.
# cell line H9 (WA09) = test: Culture with fibronectin added to the medium, cell appearance; assay type: cell-based, human; details: 0, 20, 40, 80, 160, 320 μg/well tested; 9.6 cm^2 well, 3 mL medium; FIG. 8
# Experimental: (§3) In a 6 well plate (from Becton, Dickinson and Company), first media containing fibronectin were prepared by adding 10 μg/mL recombinant human insulin, 5 μg/mL recombinant human transferrin (apo), 10 μM 2-mercaptoethanol, 10 μM 2-ethanolamine, 20 nM sodium selenite, 9.4 μg/mL oleic acid complexed with 1 mg/mL recombinant human albumin, and 2 ng/mL recombinant human activin to the hESF-grow medium, and further adding 0, 20, 40, 80, 160, or 320 μg/well of bovine fibronectin to each well.
# as §3, with “second” for “first”, “adding” for “adding 10 μg/mL recombinant human insulin,”, “selenate and” for “selenite,”, “albumin” for “human albumin, and 2 ng/mL recombinant human activin”
# The cell line H9 (WA09) was cultured similarly to the culturing on fibronectin coating described above, except that the first medium and the second medium described in the above section on fibronectin coating were replaced with the first media containing fibronectin and the second media containing fibronectin, and cells were cultured at varying concentrations of fibronectin in respective wells. The area of 1 well in the used plate was 9.6 cm^2, and 3 mL each of the medium was added.
# murine ES cells = details: serum-free medium; cited from earlier work
# pluripotent stem cells = test: Cytokeratin expression of cells cultured on laminin; assay type: cell-based, human
compound,measurement,setting,value
O=S(=O)(O)CCN1CCN(CCO)CC1 [HEPES],effect on the maintenance of human ES cells,human ES cells; added into serum-free medium,very adverse effect
Myr. RFARKGALRQKNV (Myristoyl-RFARKGALRQKNV),proliferation,[1]; 1 to 2.5 μM in medium,increase in proliferation
same,suppression of differentiation compared to no inhibitor,[1]; 1 to 5 μM in medium,further suppression of differentiation
activin,differentiation induction into the nerve or mesendoderm,human ES cells; addition of activin,promotes differentiation induction
same,ERK activation,[2],activates ERK
collagen,adhesion ability,[3],weak adhesion ability
same,adhesion ability,[4],weak adhesion ability
same,adhesion ability,[5],strongest adhesion ability
same,coating concentration at which adhesion ability was strongest,[5],about 10 μg/cm^2
fibronectin,adhesion ability,[3],strongest adhesion ability
same,adhesion ability,[4],strongest adhesion ability
same,amount of fibronectin at which the undifferentiated state was best maintained,cell line H9 (WA09),80 μg/well
same,effect on undifferentiated state / differentiation,murine ES cells,act to promote the differentiation
gelatin,adhesion ability,[3],weak adhesion ability
same,adhesion ability,[4],weak adhesion ability
same,adhesion ability,[5],strongest adhesion ability
same,coating concentration at which adhesion ability was strongest,[5],about 10 μg/cm^2
heparin,proliferation of ES cells,human ES cells; added in the absence of FGF-2,promotes the proliferation
laminin,adhesion ability,[3],strongest adhesion ability
same,adhesion ability,[4],strongest adhesion ability
same,cytokeratin expression,pluripotent stem cells,express cytokeratin strongly
same,effect on undifferentiated state / differentiation,murine ES cells,act to promote the differentiation

# — US20130309768A1, “METHOD FOR CULTURING HUMAN PLURIPOTENT STEM CELLS” (NATIONAL INSTITUTE OF BIOMEDICAL INNOVATION, priority 2011, published 2013)
